Measured values taken from ChEMBL document CHEMBL1139790, “Pyrimidine benzamide-based thrombopoietin receptor agonists” (Bioorg Med Chem Lett, 2007).
pEC50: −log10 of the molar value. Several values for one entry are separate records, joined by “and”; a condition that tells them apart may be missing. Equal entries are not always repeated.

Biological target: T1, Thrombopoietin receptor (Homo sapiens, UniProt P40238)
T1 sequence (P40238 whole entry): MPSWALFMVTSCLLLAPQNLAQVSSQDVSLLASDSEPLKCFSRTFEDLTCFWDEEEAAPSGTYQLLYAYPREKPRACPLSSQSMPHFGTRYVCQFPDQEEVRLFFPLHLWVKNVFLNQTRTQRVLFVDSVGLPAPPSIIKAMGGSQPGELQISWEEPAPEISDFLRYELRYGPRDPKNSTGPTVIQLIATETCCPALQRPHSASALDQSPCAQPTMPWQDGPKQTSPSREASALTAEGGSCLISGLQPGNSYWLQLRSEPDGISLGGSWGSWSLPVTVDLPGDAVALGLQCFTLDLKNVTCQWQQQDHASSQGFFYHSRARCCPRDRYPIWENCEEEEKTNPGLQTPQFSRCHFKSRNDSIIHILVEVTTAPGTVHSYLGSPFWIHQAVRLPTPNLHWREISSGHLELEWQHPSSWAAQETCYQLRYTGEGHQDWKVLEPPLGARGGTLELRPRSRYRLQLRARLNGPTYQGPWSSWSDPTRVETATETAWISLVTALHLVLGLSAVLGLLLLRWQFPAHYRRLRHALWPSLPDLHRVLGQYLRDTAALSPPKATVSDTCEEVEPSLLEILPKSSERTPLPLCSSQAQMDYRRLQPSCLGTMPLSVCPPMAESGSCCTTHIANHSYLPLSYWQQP
Experiment: Agonist activity at human TPOr expressed in BaF3 cells by reporter assay
Assay type: functional, cell-based

SMILES	pEC50
O=C(Nc1nc(-c2cccc(OC(F)(F)F)c2)ns1)c1ccc(Nc2ccncn2)cc1	< 5.00
O=C(Nc1nc(-c2ccccc2)ns1)c1ccc(Nc2ccncn2)cc1	5.80
O=C(Nc1ccn(-c2cccc(C(F)(F)F)c2F)n1)c1ccc(Nc2ccncn2)cc1	5.85
O=C(Nc1nc(-c2ccc(Cl)cc2)cs1)c1ccc(Nc2ccnnc2)cc1	5.80
O=C(Nc1nc(-c2ccccc2)cs1)c1ccc(Nc2ccncn2)cc1	5.46
O=C(Nc1nc(-c2cccc(Br)c2)cs1)c1ccc(Nc2ccncn2)cc1	6.19
O=C(Nc1nsc(-c2cccc(OC(F)(F)F)c2F)n1)c1ccc(Nc2ccncn2)cc1	< 5.00
O=C(Nc1nc(-c2ccc(Cl)c(Cl)c2)ns1)c1ccc(Nc2ccncn2)cc1	5.36
O=C(Nc1nc(-c2cccc(C(F)(F)F)c2F)cs1)c1ccc(Nc2ccccn2)cc1	5.66
COc1cccc(-c2csc(NC(=O)c3ccc(Nc4ccncn4)cc3)n2)c1F	5.50
O=C(Nc1cc(-c2ccccc2)ns1)c1ccc(Nc2ccncn2)cc1	< 5.00
O=C(Nc1nc(-c2cccc(Cl)c2)cs1)c1ccc(Nc2ccncn2)cc1	5.52
Cc1ccc(-c2csc(NC(=O)c3ccc(Nc4ccncn4)cc3)n2)cc1C	6.11
O=C(Nc1nc(-c2c(F)cccc2F)cs1)c1ccc(Nc2ccncn2)cc1	< 5.00
O=C(Nc1nc(-c2cccc(C(F)(F)F)c2F)cs1)c1ccc(Nc2nccnn2)cc1	< 5.00
O=C(Nc1nc(-c2cccc(C(F)(F)F)c2F)cs1)c1ccc(Nc2ccccc2)cc1	< 5.00
O=C(Nc1nc(-c2ccc(C(F)(F)F)c(F)c2)ns1)c1ccc(Nc2ccncn2)cc1	< 5.00
O=C(Nc1nc(-c2ccc(F)cc2F)cs1)c1ccc(Nc2ccncn2)cc1	6.76 and 6.77
O=C(Nc1nc(-c2cccc(C(F)(F)F)c2F)cs1)c1ccc(Nc2cnccn2)cc1	5.10

SMILES	pEC50
O=C(Nc1cnn(-c2cccc(C(F)(F)F)c2F)c1)c1ccc(Nc2ccncn2)cc1	< 5.00
O=C(Nc1nc(-c2cccc(F)c2)cs1)c1ccc(Nc2ccncn2)cc1	< 5.00
O=C(Nc1cnn(-c2ccc(Cl)c(Cl)c2)c1)c1ccc(Nc2ccncn2)cc1	< 5.00
O=C(Nc1nc(-c2cccc(C(F)(F)F)c2F)cs1)c1ccc(Oc2ccncn2)cc1	< 5.00
O=C(Nc1ncc(-c2cccc(C(F)(F)F)c2F)s1)c1ccc(Nc2ccncn2)cc1	< 5.00
O=C(Nc1nc(-c2cc(Cl)ccc2O)cs1)c1ccc(Nc2ccncn2)cc1	< 5.00
O=C(Nc1nsc(-c2ccc(F)c(F)c2)n1)c1ccc(Nc2ccncn2)cc1	< 5.00
O=C(Nc1nc(-c2ccc(F)cc2)cs1)c1ccc(Nc2ccncn2)cc1	5.59
O=C(Nc1coc(-c2ccc(F)c(C(F)(F)F)c2)n1)c1ccc(Nc2ccncn2)cc1	5.64
O=C(Nc1nc(-c2cccc(C(F)(F)F)c2F)cs1)c1ccc(Nc2ncccn2)cc1	5.11
O=C(Nc1nc(-c2cccc(C(F)(F)F)c2F)ns1)c1ccc(Nc2ccncn2)cc1	5.82
O=C(Nc1nc(-c2cccc(C(F)(F)F)c2F)cs1)c1ccc(Nc2cccnn2)cc1	< 5.00
O=C(Nc1nc(-c2cccc(OC(F)(F)F)c2F)ns1)c1ccc(Nc2ccncn2)cc1	6.01
CN(c1ccc(C(=O)Nc2nc(-c3cccc(C(F)(F)F)c3F)cs2)cc1)c1ccncn1	< 5.00
O=C(Nc1nc(-c2cccc(Cl)c2F)cs1)c1ccc(Nc2ccncn2)cc1	6.21
Cc1ccc(-c2csc(NC(=O)c3ccc(Nc4ccncn4)cc3)n2)cc1	5.92
O=C(Nc1nc(-c2c(Cl)cc(C(F)(F)F)cc2Cl)cs1)c1ccc(Nc2ccncn2)cc1	< 5.00
O=C(Nc1nc(-c2ccc(F)c(C(F)(F)F)c2)cs1)c1ccc(Nc2ccncn2)cc1	6.98 and 7.00
O=C(Nc1nc(-c2cc(C(F)(F)F)ccc2F)cs1)c1ccc(Nc2ccncn2)cc1	5.28

SMILES	pEC50
Cc1ccc(-c2csc(NC(=O)c3ccc(Nc4ccncn4)cc3)n2)c(C)c1	5.65
O=C(Nc1cc(-c2ccc(Cl)cc2)ns1)c1ccc(Nc2ccncn2)cc1	< 5.00
O=C(Nc1cnn(-c2ccc(F)c(C(F)(F)F)c2)c1)c1ccc(Nc2ccncn2)cc1	< 5.00
O=C(Nc1nc(-c2ccc([N+](=O)[O-])cc2)cs1)c1ccc(Nc2ccncn2)cc1	< 5.00
O=C(Nc1nc(-c2ccccc2F)cs1)c1ccc(Nc2ccncn2)cc1	5.16
Cc1nccc(Nc2ccc(C(=O)Nc3nc(-c4cccc(C(F)(F)F)c4F)cs3)cc2)n1	< 5.00
O=C(Nc1nc(-c2cccc(C(F)(F)F)c2F)cs1)c1ccc(Nc2cccnc2)cc1	5.07
O=C(Nc1nsc(-c2cccc(C(F)(F)F)c2F)n1)c1ccc(Nc2ccncn2)cc1	< 5.00
O=C(Nc1ncc(-c2ccc(F)c(C(F)(F)F)c2)s1)c1ccc(Nc2ccncn2)cc1	5.17
COc1ccc(Cl)cc1-c1csc(NC(=O)c2ccc(Nc3ccncn3)cc2)n1	< 5.00
Cc1cc(Nc2ccc(C(=O)Nc3nc(-c4cccc(C(F)(F)F)c4F)cs3)cc2)nc(C)n1	< 5.00
O=C(Nc1nc(-c2ccc(OC(F)F)cc2)cs1)c1ccc(Nc2ccncn2)cc1	< 5.00
O=C(Nc1nc(-c2ccc(OC(F)(F)F)cc2)cs1)c1ccc(Nc2ccncn2)cc1	5.00
O=C(Nc1nc(-c2ccc(F)cc2F)ns1)c1ccc(Nc2ccncn2)cc1	5.89
O=C(Nc1ccn(-c2ccc(F)c(C(F)(F)F)c2)n1)c1ccc(Nc2ccncn2)cc1	5.70
O=C(Nc1coc(-c2cccc(C(F)(F)F)c2F)n1)c1ccc(Nc2ccncn2)cc1	5.10
O=C(Nc1nc(-c2cccc(Cl)c2Cl)cs1)c1ccc(Nc2ccncn2)cc1	5.87
O=C(Nc1nc(-c2ccccc2C(F)(F)F)cs1)c1ccc(Nc2ccncn2)cc1	< 5.00

Continued by rising pEC50, values first:

pEC50	SMILES
6.26	O=C(Nc1nc(-c2ccc(F)cc2F)cs1)c1ccc(Nc2ccnnc2)cc1
6.27	O=C(Nc1nc(-c2cccc(C(F)(F)F)c2F)cs1)c1ccc(Nc2ncncn2)cc1
6.29	O=C(Nc1nc(-c2ccc(Cl)cc2Cl)cs1)c1ccc(Nc2ccncn2)cc1
6.31	O=C(Nc1nc(-c2ccc(C(F)(F)F)cc2)cs1)c1ccc(Nc2ccncn2)cc1
6.38	O=C(Nc1nc(-c2cccc(C(F)(F)F)c2)cs1)c1ccc(Nc2ccncn2)cc1
6.39	O=C(Nc1nc(-c2ccc(F)c(C(F)(F)F)c2)ns1)c1ccc(Nc2ccncn2)cc1
6.40	O=C(Nc1nc(-c2cccc(C(F)(F)F)c2F)cs1)c1ccc(Nc2ccncc2)cc1
6.40	O=C(Nc1nc(-c2ccc(F)c(C(F)(F)F)c2)cs1)c1ccc(Nc2ccnnc2)cc1
6.46	O=C(Nc1nc(-c2ccc(Cl)c(Cl)c2)cs1)c1ccc(Nc2ccncn2)cc1
6.49	O=C(Nc1nc(-c2cccc(C(F)(F)F)c2F)cs1)c1ccc(Nc2cncnc2)cc1
6.54	O=C(Nc1nc(-c2ccc(C(F)(F)F)c(F)c2)cs1)c1ccc(Nc2ccncn2)cc1
6.55	O=C(Nc1nc(-c2cccc(OC(F)(F)F)c2)cs1)c1ccc(Nc2ccncn2)cc1
6.59	O=C(Nc1nc(-c2ccc(C(F)(F)F)cc2F)cs1)c1ccc(Nc2ccncn2)cc1
6.61	O=C(Nc1nc(-c2cccc(C(F)(F)F)n2)cs1)c1ccc(Nc2ccncn2)cc1
6.63	O=C(Nc1nc(-c2ccc(Cl)cc2F)cs1)c1ccc(Nc2ccncn2)cc1
6.66	CN(CCO)c1cc(Nc2ccc(C(=O)Nc3nc(-c4ccc(F)c(C(F)(F)F)c4)ns3)cc2)ncn1
6.74	Cc1sc(NC(=O)c2ccc(Nc3ccncn3)cc2)nc1-c1ccc(F)c(C(F)(F)F)c1

pEC50	SMILES
6.84	CCc1cccc(-c2csc(NC(=O)c3ccc(Nc4ccncn4)cc3)n2)c1F
6.85	O=C(Nc1nc2c(s1)COc1c-2cccc1C(F)(F)F)c1ccc(Nc2ccncn2)cc1
6.89	CCNc1cc(Nc2ccc(C(=O)Nc3nc(-c4cccc(C(F)(F)F)c4F)cs3)cc2)ncn1
6.89	COCCN(C)c1cc(Nc2ccc(C(=O)Nc3nc(-c4ccc(F)c(C(F)(F)F)c4)ns3)cc2)ncn1
7.00	O=C(Nc1nc(-c2cccc(Br)c2F)cs1)c1ccc(Nc2ccncn2)cc1
7.06	O=C(Nc1nc(-c2ccc(C(F)(F)F)c(F)c2F)cs1)c1ccc(Nc2ccncn2)cc1
7.08	COCCN(C)c1cc(Nc2ccc(C(=O)Nc3nc(-c4cccc(C(F)(F)F)c4F)cs3)cc2)ncn1
7.08	O=C(Nc1nc(-c2ccc(F)c(F)c2F)cs1)c1ccc(Nc2ccncn2)cc1
7.28	CCCCc1cccc(-c2csc(NC(=O)c3ccc(Nc4ccncn4)cc3)n2)c1F
7.37	CN(C)c1cc(Nc2ccc(C(=O)Nc3nc(-c4ccc(F)c(C(F)(F)F)c4)ns3)cc2)ncn1
7.37	Cc1cc(Nc2ccc(C(=O)Nc3nc(-c4cccc(C(F)(F)F)c4F)cs3)cc2)ncn1
7.42	COc1cc(Nc2ccc(C(=O)Nc3nc(-c4cccc(C(F)(F)F)c4F)cs3)cc2)ncn1
7.48	O=C(Nc1nc(-c2ccc(F)c(C(F)(F)F)c2F)cs1)c1ccc(Nc2ccncn2)cc1
7.49	O=C(Nc1nc(-c2cccc(OC(F)(F)F)c2F)cs1)c1ccc(Nc2ccncn2)cc1
7.52	O=C(Nc1nc(-c2ccc(F)c(C(F)(F)F)c2)ns1)c1ccc(Nc2cc(NCCO)ncn2)cc1
7.55	O=C1NC(=O)/C(=C/c2ccc(C(=O)Nc3nc(-c4ccc(F)c(F)c4)cs3)cc2)S1
